Consider eight compounds from PMC12749166, “Fragment-based drug design of a bacterial kinase inhibitor capable of increasing the antibiotic sensitivity of clinical isolates” (Communications Chemistry, 2025).

Read-outs that look alike come from different tables or passages of the source.

One experiment addresses APH(3’)-Ia. Also noted: method as in PMID 23758273. The note with it: read-out: Inhibition constant; cited from earlier work.
In experiment [1] the test system is resistant hyper-permeable efflux mutant of E. coli (ΔtolC ΔbamB). The note with it: cited from earlier work.
Another experiment concerns the target 12 different APHs. Also noted: method as in PMID 23758273. The note with it: all the APHs tested; cited from earlier work.
A further experiment deals with P. aeruginosa C0307. Put plainly: Checkerboard assay of 83 with kanamycin A. The experiment is classed as cell-based. The note with it: for MIC of kanamycin A: [83] 0 µg mL^−1, 18 h at 37 °C; for checkerboard well reading (growth): 83 0 µg.mL-1.
For experiment [2], the system named is S. aureus C0032. Put plainly: MIC by broth micro-dilution. The experiment is classed as cell-based. The note with it: S. aureus C0032, aph(3')-IIIa ant(6). Background: In broth dilution the organism is exposed to a series of concentrations in liquid medium.
Experiment [3] has as its system P. aeruginosa clinical isolates. Put plainly: MIC by broth micro-dilution. The experiment is classed as cell-based.
Experiment [4] concerns S. aureus C0032. Put plainly: Checkerboard assay of 83 with kanamycin A. The experiment is classed as cell-based. The note with it: for checkerboard well reading (growth): Supp. Figure 3 C, 83 0 µg.mL-1.
Experiment [5] has as its target APH(3’)-IIIa. Also noted: method as in PMID 21573013, PMID 15388945. The note with it: read-out: Inhibition constant; cited from earlier work.
For a further experiment, the target named is APH(9)-Ia. Further details: method as in PMID 21573013, PMID 15388945. The note with it: read-out: Inhibition constant; cited from earlier work.
Experiment [6] concerns APH(2”)-IVa. Also noted: method as in PMID 19158087. The note with it: read-out: Michaelis constant (Km) for ATP; cited from earlier work.
A further experiment relates to APH(3’)-IIb. Also noted: method as in earlier work. The note with it: read-out: Michaelis constant (Km) for ATP; cited from earlier work.
A further experiment has as its system APH(3’)-IIa. The note with it: read-out: Michaelis constant (Km) for ATP; cited from earlier work.
The next experiment deals with APH(2”)-Ib. Also noted: method as in PMID 11514228. The note with it: at 1 mM; cited from earlier work.
The test system of experiment [7] is APH(3’)-IIIa. Further details: method as in PMID 11514228. The note with it: cited from earlier work.
The target of experiment [8] is T1, APH(2”)-IVa (Enterococcus casseliflavus, UniProt O68183). Put plainly: biochemical. The experiment is classed as binding. The note with it: read-out: ΔTm (°C). As for the experimental part: Thermal shift assays were performed using an RTqPCR machine Mx3005P (Stratagene) in 96-well plates (Thermo-Fast low Profile, ThermoScientific) by mixing the protein at 5 µM, SYPRO® Orange (Sigma Aldrich) at […], and fragments at 500 µM. Fluorescence was followed with Cy3 and SYAL filters. Denaturation curves were collected using MxPro-Mx3005P v4.10 software and analyzed using the implemented version of wTSA-CRAFT[36].

Experiment [9] deals with T1, APH(2”)-IVa.
Experiment [10] deals with T1, APH(2”)-IVa. The experiment in a line: biochemical. The note with it: Ki (µM), inhibition constant, ATP-competitive; 0-2 mM MgATP, 100 µM kanamycin A, global fitting.
Experiment [11] addresses T1, APH(2”)-IVa. The experiment in a line: biochemical. The experiment is classed as binding. As for the experimental part:
ITC experiments were performed on three different machines: a MicroCal VP-ITC (GE Healthcare), a MicroCal PEAQ-ITC (Malvern), or a MicroCal iTC200 (Malvern). The architecture and principles are similar for the three different systems. The experiments were carried out in Buffer HEPES at 25 °C. Titrations consisted of twenty injections of 1.5 µL inhibitors, every 120 seconds, into the measuring cell using the injection syringe rotating at 750 rpm. The data were analyzed using the MicroCal PEAQ-ITC software (v. 1.52, Malvern) using the single-site binding model to fit the raw data. The standard error of the Kd value was determined from measurements made on distinct samples (n indicated in the text).

T1 sequence (O68183 1-301): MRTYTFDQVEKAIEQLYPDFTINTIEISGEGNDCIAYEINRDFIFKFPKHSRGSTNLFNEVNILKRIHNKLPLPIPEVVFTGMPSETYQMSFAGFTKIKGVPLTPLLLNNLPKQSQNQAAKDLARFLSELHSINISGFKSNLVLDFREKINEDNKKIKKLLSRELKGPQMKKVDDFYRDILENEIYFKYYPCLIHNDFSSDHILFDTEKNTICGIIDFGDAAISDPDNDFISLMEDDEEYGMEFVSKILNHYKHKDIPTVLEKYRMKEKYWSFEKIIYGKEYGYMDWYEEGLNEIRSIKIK

On to `CC(C)(C)n1nc(-c2cccc3ccccc23)c2c(N)ncnc21` [Compound 1-NA-PP1], for which the Ki on APH(3’)-Ia was 21.5 µM. In addition, the “Rescue activity of kanamycin A” value in experiment [1] is on record as “demonstrated rescue activity of kanamycin A”.

As to `O=c1c(O)c(-c2ccc(O)c(O)c2)oc2cc(O)cc(O)c12` [Quercetin, quercetin], the Ki on 12 different APHs was 0.07 to 25 µM.

As for kanamycin A [reference compound], the “MIC of kanamycin A” value is 64 µg/mL with P. aeruginosa C0307 (0 µg mL^−1 imipenem); 64 µg/mL with P. aeruginosa C0307 (0.05 µg mL^−1 imipenem); 4096 µg/mL in the experiment with S. aureus C0032 [4] (0.125 µg mL^−1 imipenem, [83] 0 µg mL^−1, 18 h at 37 °C). For the same compound, the “checkerboard well reading (growth)” value in the experiment on P. aeruginosa C0307 (Supp. Figure 3 A, kanamycin A 2 µg.mL-1) was 1.208; in the experiment with P. aeruginosa C0307 (Supp. Figure 3 A, kanamycin A 4 µg.mL-1), 1.193; with P. aeruginosa C0307 (Supp. Figure 3 A, kanamycin A 8 µg.mL-1) it was 1.188; with P. aeruginosa C0307 (Supp. Figure 3 A, kanamycin A 16 µg.mL-1), 1.223; in the experiment on P. aeruginosa C0307 (Supp. Figure 3 A, kanamycin A 32 µg.mL-1), 1.192; in the experiment with P. aeruginosa C0307 (Supp. Figure 3 A, kanamycin A 64 µg.mL-1), 0.162. Further, the “checkerboard well reading (growth)” value with P. aeruginosa C0307 (Supp. Figure 3 A, kanamycin A 128 µg.mL-1) is 0.039; in the experiment on P. aeruginosa C0307 (Supp. Figure 3 B, kanamycin A 2 µg.mL-1) it was 1.210; with P. aeruginosa C0307 (Supp. Figure 3 B, kanamycin A 4 µg.mL-1), 1.193; in the experiment with P. aeruginosa C0307 (Supp. Figure 3 B, kanamycin A 8 µg.mL-1), 1.143; with P. aeruginosa C0307 (Supp. Figure 3 B, kanamycin A 16 µg.mL-1), 1.167; with P. aeruginosa C0307 (Supp. Figure 3 B, kanamycin A 32 µg.mL-1), 1.151. For the same compound, the “checkerboard well reading (growth)” value in the experiment with P. aeruginosa C0307 (Supp. Figure 3 B, kanamycin A 64 µg.mL-1) was determined as 0.174; in the experiment on P. aeruginosa C0307 (Supp. Figure 3 B, kanamycin A 128 µg.mL-1), 0.043; in the experiment with S. aureus C0032 [4] (kanamycin A 2 µg.mL-1), 0.337; with S. aureus C0032 [4] (kanamycin A 4 µg.mL-1) it was 0.322; with S. aureus C0032 [4] (kanamycin A 8 µg.mL-1), 0.304; with S. aureus C0032 [4] (kanamycin A 16 µg.mL-1) it was 0.292. Besides, the “checkerboard well reading (growth)” value in the experiment with S. aureus C0032 [4] (kanamycin A 32 µg.mL-1) turned out to be 0.272; in the experiment with S. aureus C0032 [4] (kanamycin A 64 µg.mL-1) it was 0.258; in the experiment on S. aureus C0032 [4] (kanamycin A 128 µg.mL-1) it was 0.312. Further, the MIC (as a rule, the lowest concentration found to suppress growth) against S. aureus C0032 [2] amounted to 4096 µg/mL; in experiment [3] (P. aeruginosa 1676, aph(3')-IIb), 128 µg/mL; in [3] (P. aeruginosa 1761, aph(3')-IIb), 128 µg/mL; in experiment [3] (P. aeruginosa 1766, aph(3')-IIb), 128 µg/mL; in experiment [3] (P. aeruginosa 1781, aph(3')-IIb), 512 µg/mL; in experiment [3] (P. aeruginosa 1869, aph(3')-IIb aac(6')-Ib3) it was 1024 µg/mL. Further, the minimum inhibitory concentration (MIC) in [3] (P. aeruginosa C0214, aph(3')-IIb) is 256 to 512 µg/mL; in [3] (P. aeruginosa C0307, aph(3')-IIb), 64 to 128 µg/mL; in experiment [3] (P. aeruginosa C0307, aph(3')-IIb, listed as Kanamycin A) it was 64 to 128 µg/mL.

As to `CC(C)(C)n1nc(Cc2cccc3ccccc23)c2c(N)ncnc21` [Compound 1-NM-PP1], the Ki at APH(3’)-Ia was 34.4 µM. Further, the “Rescue activity of kanamycin A” value in [1] was “demonstrated rescue activity of kanamycin A”.

On to `NCCNS(=O)(=O)c1ccc(Cl)c2ccncc12` [CKI-7], for which the Ki was 66 µM on APH(3’)-IIIa [5] and 159 µM at APH(9)-Ia.

Turning to `Nc1ncnc2c1ncn2[C@@H]1O[C@H](COP(=O)(O)OP(=O)(O)OP(=O)(O)O)[C@@H](O)[C@H]1O` [ATP, adenosine 5’-triphosphate], the Km (in general, the concentration of substrate that gives half-maximal velocity) in the experiment on APH(2”)-IVa [6] was 101 µM; in the experiment on APH(3’)-IIb, 24 µM; in the experiment on APH(3’)-IIa, 45 µM.

Take `COC[C@H]1OC(=O)c2coc3c2[C@@]1(C)C1=C(C3=O)[C@@H]2CCC(=O)[C@@]2(C)C[C@H]1OC(C)=O` [Wortmannin, wortmannin]: the Inhibition (in general, the change of the read-out against control, counted positive when it falls) with APH(2”)-Ib is 90%; with APH(3’)-IIIa [7] it was “did not affect”.

For `O=C(O)c1cc(NC2CC2)ncc1Cl` [Compound 36], the ΔTm (commonly the shift of the melting midpoint relative to a reference) at 500 µM at APH(2”)-IVa [8] was 2.69 °C. The “kss” value at APH(2”)-IVa [9] ([36] = 20 µM, [MgATP] 0.1 mM) came to 0.130 s⁻¹; at APH(2”)-IVa [9] ([36] = 20 µM, [MgATP] 0.2 mM), 0.200 s⁻¹; on APH(2”)-IVa [9] ([36] = 20 µM, [MgATP] 0.3 mM), 0.240 s⁻¹; on APH(2”)-IVa [9] ([36] = 20 µM, [MgATP] 0.4 mM) it was 0.278 s⁻¹; on APH(2”)-IVa [9] ([36] = 50 µM, [MgATP] 0.1 mM), 0.097 s⁻¹; at APH(2”)-IVa [9] ([36] = 50 µM, [MgATP] 0.2 mM) it was 0.138 s⁻¹. Also, the “kss” value on APH(2”)-IVa [9] ([36] = 50 µM, [MgATP] 0.3 mM) stood at 0.175 s⁻¹; at APH(2”)-IVa [9] ([36] = 50 µM, [MgATP] 0.4 mM) it was 0.207 s⁻¹; on APH(2”)-IVa [9] ([36] = 100 µM, [MgATP] 0.1 mM), 0.067 s⁻¹; at APH(2”)-IVa [9] ([36] = 100 µM, [MgATP] 0.2 mM), 0.101 s⁻¹; on APH(2”)-IVa [9] ([36] = 100 µM, [MgATP] 0.3 mM), 0.133 s⁻¹; on APH(2”)-IVa [9] ([36] = 100 µM, [MgATP] 0.4 mM) it was 0.156 s⁻¹. This compound yielded a Ki at APH(2”)-IVa [10] of 18.2 µM. In addition, the affinity at APH(2”)-IVa [11], expressed as Kd, was 37.8 µM.
